Measurements reported in patent US20060160869A1, “Ubiquitin ligase inhibitors” (Rigel Pharmaceuticals, Inc., priority 2005, published 2006).

Legend:
Assay type in all cases: biochemical
MDM2 = MDM2 (Homo sapiens, UniProt Q00987); experiment: Plate-based E3 ligase assay, MDM2 autoubiquitination (MDM2-FLAG); conditions: Table 2; read-out: MDM2 IC50
Description: (§1) E3 (His-APC11/APC2—“APC”) auto-ubiquitination was measured as described in U.S. patent application Ser. No. 09/826,312 (Publication No. US-2002-0042083-A1), which is incorporated herein in its entirety. Details of the protocol are described below. Activity in the presence of the compound was determined relative to a parallel control in which only DMSO was added. Values of the IC50 were typically determined using 6 or 8 different concentrations of the compound, although as few as 2 concentrations may be used to approximate the IC50 value.
(§2) Nickel-coated 96-well plates (Pierce 15242) were blocked for 1 hour with 100 μl of blocking buffer at room temperature. The plates were washed 4 times with 225 μl of 1×PBS and 80 μl of the reaction buffer were added that contained 100 ng/well of Flag-ubiquitin. To this, 10 μl of the test compound diluted in DMSO were added. After the test compound was added, 10 μl of E1 (human), E2 (Ubch5c), and APC in Protein Buffer was added to obtain a final concentration of 5 ng/well of E1, 20 ng/well: of E2 and 100 ng/well of APC. The plate were shaken for 10 minutes and incubated at room temperature for 1 hour. After incubation, the plates were washed 4 times with 225 μl of 1×PBS and 100 μl/well of Antibody Mix were added to each well. The plates were incubate at room temperature for another hour after which they were washed 4 times with 225 μl of 1×PBS and 100 μl/well of Lumino substrate were added to each well. The luminescence was measured by using a BMG luminescence microplate reader.
In similar manner, autoubiquitination of the E3 MDM2 was determined (MDM2-FLAG). Further instruction in such assays can be found in U.S. patent application Ser. No. 10/108,767 (Publication No. US-2003-0104474 A1), which is incorporated herein in its entirety.
hMDM2 Plate/Gel is Mouse double minute 2, human homolog. This protein belongs to the E3 RING finger ligase group.

[1] = biological target: E3 (His-APC11/APC2, "APC") (Homo sapiens, UniProt Q9NYG5+Q9UJX6); experiment: Plate-based E3 ligase assay (APC FLAG), auto-ubiquitination; conditions: Table 2; read-out: APC IC50
Chain of E3 (His-APC11/APC2, "APC") (Q9NYG5 whole entry): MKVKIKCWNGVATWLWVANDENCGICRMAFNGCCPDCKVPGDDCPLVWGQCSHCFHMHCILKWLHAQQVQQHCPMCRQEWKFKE
Chain of E3 (His-APC11/APC2, "APC") (Q9UJX6 whole entry): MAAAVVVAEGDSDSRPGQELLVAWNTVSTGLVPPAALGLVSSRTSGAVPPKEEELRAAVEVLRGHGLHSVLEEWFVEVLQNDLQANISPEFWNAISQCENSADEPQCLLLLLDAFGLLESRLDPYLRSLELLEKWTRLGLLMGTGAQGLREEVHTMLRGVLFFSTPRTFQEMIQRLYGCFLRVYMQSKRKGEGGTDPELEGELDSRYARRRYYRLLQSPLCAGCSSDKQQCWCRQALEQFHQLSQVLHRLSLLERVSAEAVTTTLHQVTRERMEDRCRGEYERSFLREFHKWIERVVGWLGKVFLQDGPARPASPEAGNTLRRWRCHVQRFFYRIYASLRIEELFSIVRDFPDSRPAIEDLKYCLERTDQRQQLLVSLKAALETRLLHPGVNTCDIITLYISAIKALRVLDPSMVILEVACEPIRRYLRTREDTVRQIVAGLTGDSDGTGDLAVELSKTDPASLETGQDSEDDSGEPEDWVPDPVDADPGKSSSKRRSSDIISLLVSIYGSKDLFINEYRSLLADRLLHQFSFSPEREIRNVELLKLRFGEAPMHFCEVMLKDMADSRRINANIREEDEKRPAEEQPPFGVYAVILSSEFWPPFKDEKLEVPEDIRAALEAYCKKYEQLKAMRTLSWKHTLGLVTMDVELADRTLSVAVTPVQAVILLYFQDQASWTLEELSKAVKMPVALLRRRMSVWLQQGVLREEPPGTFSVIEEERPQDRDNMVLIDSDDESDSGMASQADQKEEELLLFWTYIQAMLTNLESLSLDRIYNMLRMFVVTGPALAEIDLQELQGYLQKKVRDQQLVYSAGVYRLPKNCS
Description: as §1, §2
APC Plate/gel is Anaphase Promoting Complex. This protein also belongs to E3 RING finger ligase group.

E2 (Ubch5c) = E2 (Ubch5c) (Homo sapiens, UniProt P61077); experiment: E2 ligase assay, E2 auto-ubiquitination; conditions: Table 2
Chain of E2 (Ubch5c) (P61077 whole entry): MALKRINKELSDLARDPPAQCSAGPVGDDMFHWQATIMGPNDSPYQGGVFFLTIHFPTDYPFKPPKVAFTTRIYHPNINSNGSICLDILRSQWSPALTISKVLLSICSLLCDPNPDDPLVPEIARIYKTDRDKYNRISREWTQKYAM
Description: E2 (Ubch5c) auto-ubiquitination was measured as described in U.S. patent application Ser. No. 09/826,312 (Publication No. US-2002-0042083-A1), which is incorporated herein in its entirety. Details of the protocol are described below. Activity in the presence of the test compound was determined relative to a parallel control in which only DMSO was added. The IC50 values were typically determined using 6 or 8 different concentrations of compound, although as few as 2 concentrations may be used to approximate IC50 values.
Corning 96-well plates (Corning 3650) were blocked with 100 μl of Blocking Buffer for 1 hour at room temperature. The plates were washed for 4 times with 225 μl of 1×PBS and 80 μl of the reaction buffer were added that contained 100 ng/well of Flag-ubiquitin. To this, 10 μl of the test compound diluted in DMSO were added. After the test compound was added, 10 μl of E1 (human) and E2 (Ubch5c) in Protein Buffer were added to obtain a final concentration of 5 ng/well of E1 and 20 ng/well of E2. The plates were shaken for 10 minutes and incubated at room temperature for 1 hour. After incubation, the reaction was stopped by adding 25 μl of loading buffer (non-reducing) per well and the plates were heated at 95° C. for 5 minutes. An aliquot of each well was run on a 10% NugePage Gel and analyzed by Western Blot using the antibody mix and Lumino substrate described below. The luminescence was measured using a BMG luminescence microplate reader.

Chain of MDM2 (Q00987 whole entry): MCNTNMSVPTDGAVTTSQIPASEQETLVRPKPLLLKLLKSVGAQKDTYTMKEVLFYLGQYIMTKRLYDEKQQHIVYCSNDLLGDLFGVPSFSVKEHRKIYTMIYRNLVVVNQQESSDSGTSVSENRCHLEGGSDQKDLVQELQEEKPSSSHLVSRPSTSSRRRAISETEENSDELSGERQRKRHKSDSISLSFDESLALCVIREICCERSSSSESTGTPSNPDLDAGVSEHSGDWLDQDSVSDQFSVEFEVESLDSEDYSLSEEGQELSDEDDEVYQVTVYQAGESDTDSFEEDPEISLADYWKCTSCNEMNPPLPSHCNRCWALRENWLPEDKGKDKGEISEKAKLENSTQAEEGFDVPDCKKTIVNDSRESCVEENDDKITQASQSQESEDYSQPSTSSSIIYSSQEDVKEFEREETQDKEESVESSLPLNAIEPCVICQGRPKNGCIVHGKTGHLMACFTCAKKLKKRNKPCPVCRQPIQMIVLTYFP

| SMILES | IC50 (MDM2) | IC50 [1] | IC50 (E2 (Ubch5c)) |
| --- | --- | --- | --- |
| Cc1sc(N(C)Cc2ccc(C(=O)NCc3cccc(CN)c3)cc2)nc1-c1ccccc1 [compound 14] | ≥ 20 µM | ≥ 20 µM | – |
| CN(Cc1ccc(C(=O)NC(Cc2ccccc2)C(=O)O)cc1)c1nc(-c2ccc(Cl)cc2)cs1 (stereo not drawn) [compound 15] | 1 to 20 µM | 1 to 20 µM | – |
| CCN(Cc1ccc(C(=O)NCc2cccc(CN)c2)cc1)c1nc(-c2ccc(-c3ccccc3)cc2)cs1 [compound 65] | 1 to 20 µM | 1 to 20 µM | – |
| CCN(Cc1ccc(C(=O)NCC(=O)O)cc1)c1nc(-c2ccc(Cl)cc2)cs1 [compound 146, N-(4-{[[4-(4-chlorophenyl)-1,3-thiazol-2-yl](ethyl)amino]methyl}benzoyl)glycine] | ≥ 20 µM | – | – |
| COc1cccc(-c2csc(N(Cc3ccccc3)Cc3ccc(C(=O)NCC(=O)O)cc3)n2)c1 [compound 177] | < 1 µM | – | – |
| O=C(O)CNC(=O)c1ccc(CN(CCc2ccccc2)c2nc(-c3ccccc3)cs2)cc1 [compound 186] | 1 to 20 µM | – | – |
| CCN(Cc1ccc(C(=O)NCC(=O)O)cc1)c1nc(-c2ccc(-c3ccccc3)cc2)cs1 [compound 193] | 1 to 20 µM | – | – |
| COc1ccc(OC)c(-c2csc(N(Cc3ccccc3)Cc3ccc(C(=O)NCC(=O)O)cc3)n2)c1 [compound 207] | 1 to 20 µM | – | – |
| COc1ccc(OC)c(-c2csc(N(Cc3ccc(C(=O)NCC(=O)O)cc3)c3ccccc3F)n2)c1 [compound 215] | < 1 µM | 1 to 20 µM | – |
| O=C(O)CNC(=O)c1ccc(CN(Cc2ccccc2)c2nc(-c3ccccc3)cs2)cc1 [compound 216] | 1 to 20 µM | – | – |
| COc1ccc(-c2csc(N(Cc3ccc(C(=O)N4CCNCC4)cc3)Cc3cccc(OC(F)(F)F)c3)n2)cc1 [compound 222] | ≥ 20 µM | ≥ 20 µM | – |
| COc1ccc(-c2csc(N(CCOc3ccccc3)Cc3ccc(C(=O)N4CCNCC4)cc3)n2)cc1 [compound 223] | ≥ 20 µM | ≥ 20 µM | – |
| COc1cccc(CN(Cc2ccc(C(=O)N3CCNCC3)cc2)c2nc(-c3cccc([N+](=O)[O-])c3)cs2)c1OC [compound 224] | ≥ 20 µM | ≥ 20 µM | – |
| CC(C)N(CCN(Cc1ccc(C(=O)N2CCNCC2)cc1)c1nc(-c2ccccc2Cl)cs1)C(C)C [compound 225] | ≥ 20 µM | ≥ 20 µM | – |
| COc1ccc(-c2csc(N(CCN(C(C)C)C(C)C)Cc3ccc(C(=O)N4CCNCC4)cc3)n2)cc1 [compound 227] | ≥ 20 µM | ≥ 20 µM | – |
| O=C(c1ccc(CN(Cc2cccc(OC(F)(F)F)c2)c2nc(-c3cccc([N+](=O)[O-])c3)cs2)cc1)N1CCNCC1 [compound 228] | ≥ 20 µM | 1 to 20 µM | – |
| COc1cccc(CN(Cc2ccc(C(=O)N3CCNCC3)cc2)c2nc(-c3ccc(C)cc3)cs2)c1OC [compound 230] | ≥ 20 µM | 1 to 20 µM | – |
| COc1cccc(-c2csc(N(CCN(C(C)C)C(C)C)Cc3ccc(C(=O)N4CCNCC4)cc3)n2)c1 [compound 231] | ≥ 20 µM | ≥ 20 µM | – |
| Cc1ccc(-c2csc(N(Cc3ccc(C(=O)N4CCNCC4)cc3)Cc3cccc(OC(F)(F)F)c3)n2)cc1 [compound 235] | 1 to 20 µM | 1 to 20 µM | – |
| COc1cccc(CN(Cc2ccc(C(=O)N3CCNCC3)cc2)c2nc(-c3ccc(Cl)cc3)cs2)c1OC [compound 245] | ≥ 20 µM | 1 to 20 µM | – |

Further lines, results first:

| IC50 (MDM2) | IC50 [1] | IC50 (E2 (Ubch5c)) | SMILES |
| --- | --- | --- | --- |
| ≥ 20 µM | ≥ 20 µM | – | O=C(c1ccc(CN(Cc2cccc(OC(F)(F)F)c2)c2nc(-c3ccc(Cl)cc3)cs2)cc1)N1CCNCC1 [compound 251] |
| ≥ 20 µM | 1 to 20 µM | – | O=C(c1ccc(CN(CCOc2ccccc2)c2nc(-c3ccc(Cl)cc3)cs2)cc1)N1CCNCC1 [compound 252] |
| ≥ 20 µM | 1 to 20 µM | – | COc1ccc(OC)c(-c2csc(N(Cc3ccc(C(=O)N4CCNCC4)cc3)Cc3cccc(OC(F)(F)F)c3)n2)c1 [compound 267] |
| ≥ 20 µM | ≥ 20 µM | – | COc1ccc(OC)c(-c2csc(N(CCOc3ccccc3)Cc3ccc(C(=O)N4CCNCC4)cc3)n2)c1 [compound 268] |
| – | ≥ 20 µM | – | COc1cccc(CN(Cc2ccc(C(=O)N3CCNCC3)cc2)c2nc(-c3ccc(C)cc3)cs2)c1OC [compound 283] |
| ≥ 20 µM | ≥ 20 µM | – | O=C(c1ccc(CN(c2nc(-c3ccc(Cl)cc3)cs2)c2cccc3ccccc23)cc1)N1CCNCC1 [compound 289] |
| ≥ 20 µM | ≥ 20 µM | – | O=C(c1ccc(CN(CCOc2ccccc2)c2nc(-c3ccc(F)cc3)cs2)cc1)N1CCNCC1 [compound 290] |
| ≥ 20 µM | 1 to 20 µM | – | COc1ccc(-c2csc(N(Cc3ccc(C(=O)N4CCNCC4)cc3)Cc3cccc(OC)c3OC)n2)cc1 [compound 291] |
| ≥ 20 µM | ≥ 20 µM | – | COc1ccccc1-c1csc(N(CCN(C(C)C)C(C)C)Cc2ccc(C(=O)N3CCNCC3)cc2)n1 [compound 292] |
| 1 to 20 µM | 1 to 20 µM | ≥ 20 µM | COc1cccc(CN(Cc2ccc(C(=O)N3CCNCC3)cc2)c2nc(-c3ccc(Cl)c(Cl)c3)cs2)c1OC [compound 297] |
| 1 to 20 µM | 1 to 20 µM | ≥ 20 µM | COc1ccccc1-c1csc(N(Cc2ccc(C(=O)N3CCNCC3)cc2)Cc2cccc(OC(F)(F)F)c2)n1 [compound 328] |
| 1 to 20 µM | 1 to 20 µM | – | O=C(c1ccc(CN(Cc2cccc(OC(F)(F)F)c2)c2nc(-c3ccc(Br)cc3)cs2)cc1)N1CCNCC1 [compound 343] |
| 1 to 20 µM | 1 to 20 µM | – | O=C(c1ccc(CN(CCOc2ccccc2)c2nc(-c3ccc(Br)cc3)cs2)cc1)N1CCNCC1 [compound 344] |
| ≥ 20 µM | 1 to 20 µM | ≥ 20 µM | COc1cccc(CN(Cc2ccc(C(=O)N3CCNCC3)cc2)c2nc(-c3ccccc3Cl)cs2)c1OC [compound 345] |
| 1 to 20 µM | 1 to 20 µM | – | O=C(c1ccc(CN(Cc2cccc(OC(F)(F)F)c2)c2nc(-c3ccc(Cl)c(Cl)c3)cs2)cc1)N1CCNCC1 [compound 359] |
